Key:
[1] = Binding affinity to tobacco 14-3-3epsilon T14-3eDC mutant expressed in Escherichia coli assessed as Kd for 14-3-3epsilon binding to H+-ATPase peptide motif by surface plasmon resonance assay; design: species or system Nicotiana tabacum
[2] = target: T1, 14-3-3 protein zeta/delta (Homo sapiens, UniProt P63104); assay: Binding affinity to human GST-tagged 14-3-3zeta expressed in Escherichia coli assessed as Kd for 14-3-3zeta binding to H+-ATPase peptide motif by isothermal titration calorimetric method
T1 sequence (P63104 whole entry): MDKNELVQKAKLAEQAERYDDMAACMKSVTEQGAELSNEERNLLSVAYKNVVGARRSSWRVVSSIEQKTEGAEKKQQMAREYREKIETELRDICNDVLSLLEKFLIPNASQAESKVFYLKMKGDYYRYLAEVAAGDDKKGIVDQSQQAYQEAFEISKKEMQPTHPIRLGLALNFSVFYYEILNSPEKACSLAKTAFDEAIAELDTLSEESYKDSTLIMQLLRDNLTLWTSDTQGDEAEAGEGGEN

Kd [2] [nM] | SMILES | Kd [1] [nM]
– | CC(C)CC(NC(=O)[C@H](O)[C@H](N)Cc1ccccc1)C(=O)O (stereo partly drawn) | 1800
700 | C=CC(C)(C)OC[C@H]1O[C@H](O[C@@H]2C3=C([C@H](C)COC(C)=O)C[C@H](O)[C@]3(C)/C=C3/[C@@H](COC)CC[C@H]3[C@@H](C)[C@H]2O)[C@H](O)[C@@H](OC(C)=O)[C@@H]1O | –
– | O=C(C1=C(O)C(=O)N(c2ccc(O)c(C(=O)O)c2)C1c1ccc([N+](=O)[O-])cc1)c1ccccc1 (stereo not drawn) | 80000

— ChEMBL document CHEMBL4229430, “Inducing protein-protein interactions with molecular glues” (Bioorg Med Chem Lett, 2018)
